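Method: 48-hour compound exposure of cells in 96-well plates, five concentrations, linear interpolation of endpoints. GI50 is the concentration that inhibits growth by half.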 The source made the active and inactive calls. Rule as the data show it: active = GI50 up to about 1.1 µM and inactive = higher.
Columns and labels:
Assay in all cases: growth of human tumour cells (NCI), 48 h
SF-539 = system: SF-539
Hs-578T = system: Hs-578T
SF-295 = system: SF-295
BT-549 = system: BT-549
COLO 205 = system: COLO 205
UO-31 = system: UO-31
SN12C = system: SN12C
OVCAR-3 = system: OVCAR-3
T47D = system: T47D
HL-60 = system: HL-60
A498 = system: A498
HOP-62 = system: HOP-62
KM12 = system: KM12
DU-145 = system: DU-145
HOP-92 = system: HOP-92
MDA-N = system: MDA-N
CCRF-CEM = system: CCRF-CEM
HT-29 = system: HT-29
NCI-H23 = system: NCI-H23
HCT-15 = system: HCT-15

| SMILES | GI50 (SF-539) | GI50 (Hs-578T) | GI50 (SF-295) | GI50 (BT-549) | GI50 (COLO 205) | GI50 (UO-31) | GI50 (SN12C) | GI50 (OVCAR-3) | GI50 (T47D) | GI50 (HL-60) | GI50 (A498) | GI50 (HOP-62) | GI50 (KM12) | GI50 (DU-145) | GI50 (HOP-92) | GI50 (MDA-N) | GI50 (CCRF-CEM) | GI50 (HT-29) | GI50 (NCI-H23) | GI50 (HCT-15) [µM] |
| --- | --- | --- | --- | --- | --- | --- | --- | --- | --- | --- | --- | --- | --- | --- | --- | --- | --- | --- | --- | --- |
| CC[C@@]1(OC(=O)CCC(=O)O)C(=O)OCc2c1cc1n(c2=O)Cc2cc3ccccc3nc2-1 | 0.0281 µM (active) | 14.6 µM (inactive) | 0.0251 µM (active) | 0.484 µM (active) | 0.692 µM (active) | 0.0583 µM (active) | 0.0333 µM (active) | 0.91 µM (active) | 0.065 µM (active) | 0.0313 µM (active) | 0.216 µM (active) | 0.0139 µM (active) | 0.659 µM (active) | 0.0271 µM (active) | 1.29 µM (inactive) | 1.09 µM (active) | < 0.01 µM (active) | 0.366 µM (active) | 0.0442 µM (active) | 0.472 |
| Cn1c(=O)c2[nH]c(/N=N\n3ccc4ccccc43)nc2n(C)c1=O | > 100 µM (inactive) | > 100 µM (inactive) | > 100 µM (inactive) | > 100 µM (inactive) | > 100 µM (inactive) | > 100 µM (inactive) | > 100 µM (inactive) | > 100 µM (inactive) | > 100 µM (inactive) | > 100 µM (inactive) | > 100 µM (inactive) | > 100 µM (inactive) | > 100 µM (inactive) | > 100 µM (inactive) |  | > 100 µM (inactive) | > 100 µM (inactive) | > 100 µM (inactive) | > 100 µM (inactive) | > 100 |
| Cc1nc2ccccc2c(=O)n1NC(=O)c1ccccn1 | > 100 µM (inactive) | > 100 µM (inactive) | > 100 µM (inactive) | > 100 µM (inactive) | > 100 µM (inactive) | > 100 µM (inactive) | > 100 µM (inactive) | > 100 µM (inactive) | > 100 µM (inactive) | > 100 µM (inactive) | > 100 µM (inactive) | > 100 µM (inactive) | > 100 µM (inactive) | > 100 µM (inactive) | > 100 µM (inactive) | > 100 µM (inactive) | > 100 µM (inactive) | > 100 µM (inactive) | > 100 µM (inactive) |  |
| CCN(/C=C1/C(=O)C(c2ccccc2)N(c2ccccc2)C1=O)CC (stereo not given) | > 10 µM (inactive) | > 10 µM (inactive) | > 10 µM (inactive) | > 10 µM (inactive) | > 10 µM (inactive) | > 10 µM (inactive) | > 10 µM (inactive) | > 10 µM (inactive) | > 10 µM (inactive) | > 10 µM (inactive) | > 10 µM (inactive) | > 10 µM (inactive) | > 10 µM (inactive) | > 10 µM (inactive) |  | > 10 µM (inactive) | > 10 µM (inactive) | > 10 µM (inactive) | > 10 µM (inactive) | > 10 |
| CSc1ncc2c(n1)-c1ccccc1OC2N1CCCCC1 (stereo not given) | 51.9 µM (inactive) | 26.9 µM (inactive) | 38.5 µM (inactive) | 24.3 µM (inactive) | 44.8 µM (inactive) | 32.5 µM (inactive) | 29.8 µM (inactive) | 38.5 µM (inactive) | 27.3 µM (inactive) | 19.7 µM (inactive) | 22.2 µM (inactive) |  | 38.5 µM (inactive) | 34.4 µM (inactive) | 25 µM (inactive) | 38.1 µM (inactive) | 20.6 µM (inactive) | 25.4 µM (inactive) | 41.7 µM (inactive) | 28.9 |
| CC(=O)NC1C(OCc2ccccc2)OC(CO)C(O)C1OC(C)C(=O)NC(C(=O)NC(CCC(=O)NCCCCNc1c2ccccc2nc2cccc([N+](=O)[O-])c12)C(N)=O)C(C)C (stereo not given) | 3.3 µM (inactive) | 8.57 µM (inactive) | 4.99 µM (inactive) | 5.97 µM (inactive) | 1.05 µM (active) | 2.89 µM (inactive) | 1.71 µM (inactive) | 2.13 µM (inactive) | 1.82 µM (inactive) | 1.65 µM (inactive) | 1.84 µM (inactive) | 3.15 µM (inactive) | 2.36 µM (inactive) | 2.55 µM (inactive) | 1.28 µM (inactive) | 1.64 µM (inactive) |  | 1.14 µM (inactive) | 1.79 µM (inactive) | 3.21 |
| COc1ccc(C(=O)/C=C2\c3ccccc3C(=O)N2C)cc1 | 64 µM (inactive) | 90.6 µM (inactive) | 71 µM (inactive) | 68.1 µM (inactive) | 55 µM (inactive) | 44.3 µM (inactive) | 58.5 µM (inactive) | 98.2 µM (inactive) | 27 µM (inactive) |  | 69 µM (inactive) | 60.4 µM (inactive) | 62.8 µM (inactive) | > 100 µM (inactive) | 24.5 µM (inactive) | 41.4 µM (inactive) | 44.8 µM (inactive) | 35.6 µM (inactive) | 55.3 µM (inactive) | 36.4 |
| COC(=O)CC(c1cn(S(=O)(=O)c2ccc(C)cc2)c2ccccc12)C1C[C@@H](C(=O)OC)N(C(=O)OC(C)(C)C)C1=O (stereo not given in full) | 7.66 µM (inactive) | > 100 µM (inactive) | 20.9 µM (inactive) | > 100 µM (inactive) | 26.7 µM (inactive) | 45.6 µM (inactive) | 32.1 µM (inactive) | 31 µM (inactive) | 95.3 µM (inactive) | > 100 µM (inactive) | 71.4 µM (inactive) | > 100 µM (inactive) | 71.9 µM (inactive) | 87.1 µM (inactive) |  | 55.8 µM (inactive) | 9.18 µM (inactive) | 26.7 µM (inactive) | 66.8 µM (inactive) | 26.5 |
| NC(=O)c1cc2cc(Cl)cc(Cl)c2o/c1=N\c1ccc(F)cc1 |  | 35.1 µM (inactive) | 18.5 µM (inactive) | 18.6 µM (inactive) | 17.5 µM (inactive) | 25.8 µM (inactive) | 16.7 µM (inactive) | 21.2 µM (inactive) | 18.3 µM (inactive) | 64.1 µM (inactive) | 19.4 µM (inactive) | 27.6 µM (inactive) | 26.5 µM (inactive) | 19 µM (inactive) | 31.9 µM (inactive) | 22.4 µM (inactive) | 56.8 µM (inactive) | 29.6 µM (inactive) | 14.7 µM (inactive) | 17.3 |
| O=C1N/C(=N/N=C/C(O)C(O)C(O)C(O)CO)N/C1=C\c1c[nH]c2ccccc12 (stereo not given) | > 100 µM (inactive) | > 100 µM (inactive) | > 100 µM (inactive) | > 100 µM (inactive) | > 100 µM (inactive) |  | > 100 µM (inactive) | 62.8 µM (inactive) | 97.7 µM (inactive) | 48.4 µM (inactive) | 38.3 µM (inactive) | > 100 µM (inactive) | 52.4 µM (inactive) | > 100 µM (inactive) | > 100 µM (inactive) | > 100 µM (inactive) | 39.1 µM (inactive) | 57.7 µM (inactive) | > 100 µM (inactive) | > 100 |
| C[C@@H]1CCC2[C@@H](C)[C@@H](OCCO[C@H]3OC4O[C@@]5(C)CCC6[C@H](C)CCC([C@H]3C)[C@@]46OO5)OC3O[C@@]4(C)CCC1[C@]32OO4 (stereo not given in full) | 0.202 µM (active) | 0.211 µM (active) | 0.405 µM (active) | 0.883 µM (active) | 0.0514 µM (active) | 0.201 µM (active) | 0.541 µM (active) |  | 0.0263 µM (active) | 0.0583 µM (active) | 1.92 µM (inactive) | 1.34 µM (inactive) | 0.056 µM (active) | 0.171 µM (active) | 2.64 µM (inactive) | 0.219 µM (active) | 0.0682 µM (active) | 0.05 µM (active) | 0.115 µM (active) | 0.0238 |

Reference: ChEMBL document CHEMBL1201862, “PubChem BioAssay data set” (2004)
